The source made the active and inactive calls. The calls are words filed in the database; no cut-off is given here.
How the values were obtained:
[1] = system: Leishmania amazonensis; experiment: Antiparasitic activity against Leishmania amazonensis promastigotes infected in mouse RAW264.7 cells measured after 48 hrs; type: functional, organism-based; conditions: for IC50: RAW264.7, 48 h
[2] = system: Trypanosoma cruzi; experiment: Antitrypanosomal activity against bloodstream trypomastigote form of Trypanosoma cruzi Y measured after 24 hrs; type: functional, organism-based
[3] = system: Trypanosoma cruzi; experiment: Antitrypanosomal activity against Trypanosoma cruzi Tulahuen expressing beta-galactosidase gene infected in mouse L929 cells measured after 120 hrs; type: functional, organism-based; conditions: L929, 120 h
[4] = Cytotoxicity against mouse RAW264.7 cells measured after 48 hrs; type: toxicity, cell-based
[5] = Selectivity index, ratio of CC50 for mouse RAW264.7 cells to IC50 for Leishmania amazonensis promastigotes infected in mouse RAW264.7 cells; type: toxicity, cell-based; conditions: read-out: Ratio CC50/IC50
[6] = Cytotoxicity against non-infected mouse peritoneal macrophage cells measured after 24 hrs; type: toxicity, cell-based; conditions: non-infected peritoneal macrophages, read-out: LC50
[7] = system: Leishmania amazonensis; experiment: Antiparasitic activity against Leishmania amazonensis amastigotes infected in mouse RAW264.7 cells measured after 48 hrs; type: functional, organism-based; conditions: for IC50: RAW264.7, 48 h
[8] = target: Cruzipain (Trypanosoma cruzi) (UniProt P25779); experiment: Inhibition of Trypanosoma cruzi cruzain at 100 uM relative to control
[9] = Selectivity index, ratio of CC50 for mouse RAW264.7 cells to IC50 for Leishmania amazonensis amastigotes infected in mouse RAW264.7 cells; type: toxicity, cell-based; conditions: read-out: Ratio CC50/IC50
[10] = Selectivity index, ratio of CC50 for mouse RAW264.7 cells to IC50 for Leishmania infantum promastigotes infected in mouse RAW264.7 cells; type: toxicity, cell-based; conditions: read-out: Ratio CC50/IC50
[11] = Selectivity index, ratio of LC50 for mouse peritoneal macrophage cells to IC50 for bloodstream trypomastigote form of Trypanosoma cruzi Y; type: toxicity; conditions: peritoneal macrophages, read-out: Ratio LC50/IC50
[12] = Cytotoxicity against mouse L929 cells assessed as inhibition of cell viability measured after 120 hrs; type: toxicity, cell-based
[13] = Selectivity index, ratio of CC50 for mouse RAW264.7 cells to IC50 for Leishmania infantum amastigotes infected in mouse RAW264.7 cells; type: toxicity, cell-based; conditions: read-out: Ratio CC50/IC50
[14] = Selectivity index, ratio of CC50 for mouse L929 cells to IC50 for Trypanosoma cruzi Tulahuen expressing beta-galactosidase gene infected in mouse L929 cells; type: toxicity, cell-based; conditions: read-out: Ratio CC50/IC50
[15] = system: Leishmania infantum; experiment: Antiparasitic activity against Leishmania infantum promastigotes infected in mouse RAW264.7 cells measured after 48 hrs; type: functional, organism-based; conditions: for IC50: RAW264.7, 48 h
[16] = system: Leishmania infantum; experiment: Antiparasitic activity against Leishmania infantum amastigotes infected in mouse RAW264.7 cells measured after 48 hrs; type: functional, organism-based; conditions: for IC50: RAW264.7, 48 h
[17] = system: Trypanosoma cruzi; experiment: Antitrypanosomal activity against tissue-culture derived trypomastigote form of Trypanosoma cruzi Y measured after 120 hrs; type: functional
[18] = system: Trypanosoma cruzi; experiment: Potency index, ratio of benznidazole IC50 to test compound IC50 for antitrypanosomal activity against Trypanosoma cruzi Tulahuen expressing beta-galactosidase gene infected in mouse L929 cells measured after 120 hrs; type: functional
[19] = system: Leishmania infantum; experiment: Antiparasitic activity against Leishmania infantum; type: functional, organism-based

Chain of Cruzipain (Trypanosoma cruzi) (P25779 123-467 limits assumed): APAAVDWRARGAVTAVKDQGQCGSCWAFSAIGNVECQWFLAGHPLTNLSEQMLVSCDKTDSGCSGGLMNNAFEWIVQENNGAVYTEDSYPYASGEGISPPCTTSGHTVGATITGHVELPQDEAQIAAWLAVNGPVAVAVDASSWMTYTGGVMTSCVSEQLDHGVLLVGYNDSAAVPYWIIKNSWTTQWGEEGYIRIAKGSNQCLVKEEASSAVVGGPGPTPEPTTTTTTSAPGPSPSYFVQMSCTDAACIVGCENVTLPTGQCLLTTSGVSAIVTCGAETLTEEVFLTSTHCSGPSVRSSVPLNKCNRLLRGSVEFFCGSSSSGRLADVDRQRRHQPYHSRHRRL

O=C(N/N=C/c1ccc(O)c(O)c1)c1nc2ccccc2[nH]1
IC50 [1]: 170 µM
IC50 [2]: 144 µM
IC50 [3]: 72.9 µM
CC50 at 48 h [4]: 14.8 µM
selectivity ratio [5]: 0.09
CC50 at 24 h [6]: 128 µM
IC50 [7]: 62.1 µM
inhibition [8]: 61%
selectivity ratio [9]: 0.2
selectivity ratio [10]: 0.2
selectivity ratio [11]: 0.9
CC50 at 120 h [12]: 102 µM
selectivity ratio [13]: 0.4
selectivity ratio [14]: 1.4
IC50 [15]: 90.8 µM
IC50 [16]: 37.8 µM
LC50 [17]: 98.2 µM

O=C(N/N=C/c1ccc(Cl)cc1)c1nc2ccccc2[nH]1
Activity [1]: inactive
IC50 [2]: > 500 µM
IC50 [3]: 14.7 µM
CC50 at 48 h [4]: 12.4 µM
Activity [7]: inactive
inhibition [8]: 3%
CC50 at 120 h [12]: 51.9 µM
selectivity ratio [13]: 0.4
selectivity ratio [14]: 3.5
IC50 [15]: > 335 µM
IC50 [16]: 28.4 µM

O=C(Cn1ccnc1[N+](=O)[O-])NCc1ccccc1 [BENZNIDAZOLE]
IC50 [2]: 8.8 µM
IC50 [3]: 1.52 µM
CC50 at 24 h [6]: > 1000 µM
selectivity ratio [11]: 113
CC50 at 120 h [12]: 2110 µM
selectivity ratio [14]: 1390
LC50 [17]: 10.8 µM

O=C(N/N=C/c1ccc([N+](=O)[O-])o1)c1nc2ccccc2[nH]1
Activity [1]: inactive
IC50 [2]: 304 µM
IC50 [3]: 0.033 µM
CC50 at 48 h [4]: 25.7 µM
CC50 at 24 h [6]: > 500 µM
IC50 [7]: 18.4 µM
Ratio IC50 [18]: 46
inhibition [8]: 18%
selectivity ratio [9]: 1.4
selectivity ratio [10]: 0.9
selectivity ratio [11]: > 1.6
CC50 at 120 h [12]: 257 µM
selectivity ratio [13]: 0.4
selectivity ratio [14]: 7680
IC50 [15]: 28.7 µM
IC50 [16]: 61.8 µM
LC50 [17]: 15 µM

O=C(N/N=C/c1ccc([N+](=O)[O-])cc1)c1nc2ccccc2[nH]1
Activity [1]: inactive
IC50 [2]: > 500 µM
IC50 [3]: 202 µM
CC50 at 48 h [4]: 84.4 µM
Activity [7]: inactive
inhibition [8]: 2%
CC50 at 120 h [12]: > 323 µM
selectivity ratio [14]: > 1.6
Activity [15]: inactive
Activity [16]: inactive
LC50 [17]: 328 µM

COc1cc(/C=N/NC(=O)c2nc3ccccc3[nH]2)ccc1O
Activity [1]: inactive
IC50 [2]: > 500 µM
IC50 [3]: 65.7 µM
CC50 at 48 h [4]: 89.9 µM
Activity [7]: inactive
inhibition [8]: 38%
CC50 at 120 h [12]: 72.2 µM
selectivity ratio [14]: 1.1
Activity [15]: inactive
Activity [16]: inactive
LC50 [17]: 394 µM

O=C(N/N=C/c1ccccc1O)c1nc2ccccc2[nH]1
Activity [1]: inactive
IC50 [2]: > 500 µM
IC50 [3]: 3.6 µM
CC50 at 48 h [4]: 29.2 µM
IC50 [7]: 104 µM
inhibition [8]: 4%
selectivity ratio [9]: 0.3
selectivity ratio [10]: 1.2
CC50 at 120 h [12]: 52.4 µM
selectivity ratio [13]: 1.3
selectivity ratio [14]: 14.7
IC50 [15]: 23.9 µM
IC50 [16]: 21.8 µM
LC50 [17]: 19.9 µM

COc1ccc(/C=N/NC(=O)c2nc3ccccc3[nH]2)cc1O
Activity [1]: inactive
IC50 [2]: 123 µM
IC50 [3]: 24.8 µM
CC50 at 48 h [4]: 88.9 µM
CC50 at 24 h [6]: 120 µM
IC50 [7]: 136 µM
inhibition [8]: 58%
selectivity ratio [9]: 0.7
selectivity ratio [10]: 0.5
selectivity ratio [11]: 1
CC50 at 120 h [12]: 153 µM
selectivity ratio [13]: 1.7
selectivity ratio [14]: 6.2
IC50 [15]: 191 µM
IC50 [16]: 52.5 µM
LC50 [17]: 203 µM

O=C(N/N=C/c1ccc2c(c1)OCO2)c1nc2ccccc2[nH]1
Activity [1]: inactive
IC50 [2]: > 500 µM
IC50 [3]: 105 µM
CC50 at 48 h [4]: 30.1 µM
IC50 [7]: 45.1 µM
inhibition [8]: 47%
selectivity ratio [9]: 0.7
CC50 at 120 h [12]: 148 µM
selectivity ratio [14]: 1.4
Activity [15]: inactive
Activity [16]: inactive

O=C(N/N=C/c1ccc(Br)cc1)c1nc2ccccc2[nH]1
Activity [1]: inactive
IC50 [2]: > 500 µM
IC50 [3]: 7.3 µM
CC50 at 48 h [4]: 8.6 µM
Activity [7]: inactive
inhibition [8]: 3%
CC50 at 120 h [12]: 49.8 µM
selectivity ratio [14]: 6.8
Activity [15]: inactive
Activity [16]: inactive

O=C(N/N=C/c1ccncc1)c1nc2ccccc2[nH]1
Activity [1]: inactive
IC50 [2]: > 500 µM
IC50 [3]: 32.4 µM
CC50 at 48 h [4]: 126 µM
IC50 [7]: 172 µM
inhibition [8]: 20%
selectivity ratio [9]: 0.7
CC50 at 120 h [12]: 265 µM
selectivity ratio [14]: 8.2
Activity [15]: inactive
Activity [16]: inactive
LC50 [17]: 619 µM

O=C(N/N=C/c1cccs1)c1nc2ccccc2[nH]1
Activity [1]: inactive
IC50 [2]: > 500 µM
IC50 [3]: 91.7 µM
CC50 at 48 h [4]: 131 µM
IC50 [7]: 61.4 µM
inhibition [8]: 24%
selectivity ratio [9]: 2.1
CC50 at 120 h [12]: 170 µM
selectivity ratio [13]: 2.7
selectivity ratio [14]: 1.9
Activity [15]: inactive
IC50 [16]: 48.8 µM
LC50 [17]: 416 µM

CCCCCCCCCCCCCCCCOP(=O)([O-])OCC[N+](C)(C)C [MILTEFOSINE]
IC50 [1]: 5.2 µM
CC50 at 48 h [4]: 21.8 µM
selectivity ratio [5]: 4.2
IC50 [7]: 1.67 µM
selectivity ratio [9]: 13.1
selectivity ratio [10]: 5.6
selectivity ratio [13]: 12.7
IC50 [15]: 3.92 µM
IC50 [16]: 1.72 µM

COc1cc(/C=N/NC(=O)c2nc3ccccc3[nH]2)cc([N+](=O)[O-])c1O
Activity [1]: inactive
IC50 [2]: > 500 µM
IC50 [3]: 104 µM
CC50 at 48 h [4]: 84.4 µM
Activity [7]: inactive
inhibition [8]: 45%
CC50 at 120 h [12]: 124 µM
selectivity ratio [14]: 1.2
Activity [15]: inactive
Activity [16]: inactive
LC50 [17]: 369 µM

COc1ccc(/C=N/NC(=O)c2nc3ccccc3[nH]2)cc1
Activity [1]: inactive
IC50 [2]: 207 µM
IC50 [3]: 80.5 µM
CC50 at 48 h [4]: 188 µM
CC50 at 24 h [6]: > 500 µM
IC50 [7]: 35 µM
inhibition [8]: 22%
selectivity ratio [9]: 5.4
CC50 at 120 h [12]: 170 µM
selectivity ratio [13]: 5.1
selectivity ratio [14]: 2.1
Activity [15]: inactive
IC50 [16]: 36.7 µM
LC50 [17]: 472 µM

O=C(N/N=C/c1ccc(O)cc1)c1nc2ccccc2[nH]1
Activity [1]: inactive
IC50 [2]: 89.7 µM
IC50 [3]: 68.9 µM
CC50 at 48 h [4]: 88.8 µM
CC50 at 24 h [6]: > 500 µM
Activity [7]: inactive
inhibition [8]: 65%
selectivity ratio [11]: > 5.6
CC50 at 120 h [12]: 170 µM
selectivity ratio [13]: 0.9
selectivity ratio [14]: 2.5
Activity [15]: inactive
IC50 [16]: 97.4 µM
LC50 [17]: 233 µM

CCCn1c(NC(=O)Cc2ccc(Cl)cc2)nc2ccccc21
IC50 [19]: 12 µM

COc1cc(/C=N/NC(=O)c2nc3ccccc3[nH]2)cc(OC)c1
Activity [1]: inactive
IC50 [2]: > 500 µM
IC50 [3]: 29 µM
CC50 at 48 h [4]: 8.94 µM
IC50 [7]: 71.8 µM
inhibition [8]: 50%
selectivity ratio [9]: 0.1
CC50 at 120 h [12]: 164 µM
selectivity ratio [14]: 5.6
Activity [15]: inactive
Activity [16]: inactive

COc1ccc(/C=N/NC(=O)c2nc3ccccc3[nH]2)cc1OC
Activity [1]: inactive
IC50 [2]: 160 µM
IC50 [3]: 173 µM
CC50 at 48 h [4]: 53.6 µM
CC50 at 24 h [6]: > 500 µM
Activity [7]: inactive
inhibition [8]: 35%
selectivity ratio [11]: > 3.1
CC50 at 120 h [12]: 293 µM
selectivity ratio [14]: 1.7
Activity [15]: inactive
Activity [16]: inactive

O=C(N/N=C/c1ccccc1)c1nc2ccccc2[nH]1
Activity [1]: inactive
IC50 [2]: > 500 µM
IC50 [3]: 98.4 µM
CC50 at 48 h [4]: 123 µM
IC50 [7]: 191 µM
inhibition [8]: 25%
selectivity ratio [9]: 0.6
CC50 at 120 h [12]: 204 µM
selectivity ratio [13]: 2.3
selectivity ratio [14]: 2.1
Activity [15]: inactive
IC50 [16]: 53.7 µM

COc1cc(/C=N/NC(=O)c2nc3ccccc3[nH]2)cc(OC)c1OC
IC50 [1]: > 282 µM
IC50 [2]: > 500 µM
IC50 [3]: 35.6 µM
CC50 at 48 h [4]: 42.3 µM
IC50 [7]: 148 µM
inhibition [8]: 6%
selectivity ratio [9]: 0.3
CC50 at 120 h [12]: 203 µM
selectivity ratio [14]: 5.7
Activity [15]: inactive
IC50 [16]: > 282 µM
LC50 [17]: 343 µM

O=C(N/N=C/c1ccc(F)cc1)c1nc2ccccc2[nH]1
Activity [1]: inactive
IC50 [2]: > 500 µM
IC50 [3]: 230 µM
CC50 at 48 h [4]: 57.8 µM
IC50 [7]: > 354 µM
inhibition [8]: 17%
CC50 at 120 h [12]: 354 µM
selectivity ratio [13]: 3.1
selectivity ratio [14]: 1.5
Activity [15]: inactive
IC50 [16]: 18.4 µM
LC50 [17]: 633 µM

— ChEMBL document CHEMBL5576098, “Synthesis and activity of benzimidazole N-Acylhydrazones against Trypanosoma cruzi, Leishmania amazonensis and Leishmania infantum” (Bioorg Med Chem Lett, 2024)
